Source: the supplement of paper PMC10307832

Columns and labels:
Experiment in all cases: relative viability (nuclei count vs DMSO), 5 days (fraction); higher = more cells survive
Pemetrexed + OSI-027 = compound: Nc1nc2[nH]cc(CCc3ccc(C(=O)N[C@@H](CCC(=O)O)C(=O)O)cc3)c2c(=O)[nH]1 [Pemetrexed] + COc1cccc2cc(-c3nc([C@H]4CC[C@H](C(=O)O)CC4)n4ncnc(N)c34)[nH]c12 [OSI-027] (partner 0.5 µM)
How it was run: (§1)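 Cells from lung cancer lines were seeded into 1536-well plates and, one day later, dosed by pin tool. Treatments were either a single drug or a fixed dose of an anchor drug with five library-drug doses (not always all listed) in √10 steps. After 5 days, nuclei were stained in a one-step fixation (final 0.05% Triton X-100, 1% formaldehyde, 1 ug/ml Hoechst) and counted on 4× images, and relative viability is the treated-to-vehicle nuclei ratio, as the median of duplicate plates.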

Pemetrexed + AZD7762 = compound: Nc1nc2[nH]cc(CCc3ccc(C(=O)N[C@@H](CCC(=O)O)C(=O)O)cc3)c2c(=O)[nH]1 [Pemetrexed] + NC(=O)Nc1cc(-c2cccc(F)c2)sc1C(=O)N[C@H]1CCCNC1 [AZD7762] (partner 0.2 µM)
How it was run: as §1

Idelalisib + Phenformin = compound: CC[C@H](Nc1ncnc2[nH]cnc12)c1nc2cccc(F)c2c(=O)n1-c1ccccc1 [Idelalisib] + N=C(N)NC(=N)NCCc1ccccc1 [Phenformin] (partner 250 µM)
How it was run: as §1

Idelalisib + Dasatinib = compound: CC[C@H](Nc1ncnc2[nH]cnc12)c1nc2cccc(F)c2c(=O)n1-c1ccccc1 [Idelalisib] + Cc1nc(Nc2ncc(C(=O)Nc3c(C)cccc3Cl)s2)cc(N2CCN(CCO)CC2)n1 [Dasatinib] (partner 0.075 µM)
How it was run: as §1

Cell Line | relative viability (Pemetrexed + OSI-027; first compound 0.002 µM) | relative viability (Pemetrexed + OSI-027; first compound 0.006325 µM) | relative viability (Pemetrexed + OSI-027; first compound 0.02 µM) | relative viability (Pemetrexed + OSI-027; first compound 0.06325 µM) | relative viability (Pemetrexed + OSI-027; first compound 0.2 µM) | relative viability (Pemetrexed + AZD7762; first compound 0.002 µM) | relative viability (Pemetrexed + AZD7762; first compound 0.006325 µM) | relative viability (Pemetrexed + AZD7762; first compound 0.02 µM) | relative viability (Pemetrexed + AZD7762; first compound 0.06325 µM) | relative viability (Pemetrexed + AZD7762; first compound 0.2 µM) | relative viability (Idelalisib + Phenformin; first compound 0.04 µM) | relative viability (Idelalisib + Phenformin; first compound 0.1265 µM) | relative viability (Idelalisib + Phenformin; first compound 0.4 µM) | relative viability (Idelalisib + Phenformin; first compound 1.265 µM) | relative viability (Idelalisib + Phenformin; first compound 4 µM) | relative viability (Idelalisib + Dasatinib; first compound 0.04 µM) | relative viability (Idelalisib + Dasatinib; first compound 0.1265 µM) | relative viability (Idelalisib + Dasatinib; first compound 0.4 µM) | relative viability (Idelalisib + Dasatinib; first compound 1.265 µM) | relative viability (Idelalisib + Dasatinib; first compound 4 µM)
SW 900 | 0.633 | 0.608 | 0.689 | 0.591 | 0.464 | 0.692 | 0.599 | 0.609 | 0.497 | 0.376 | 0.683 | 0.458 | 0.634 | 0.614 | 0.395 | 0.497 | 0.543 | 0.417 | 0.543 | 0.326
NCI-H441 | 0.63 | 0.504 | 0.574 | 0.431 | 0.368 | 1.12 | 1.1 | 1.11 | 1.03 | 0.291 | 0.803 | 0.919 | 0.639 | 0.885 | 0.898 | 0.681 | 0.687 | 0.585 | 0.639 | 0.467
NCI-H1623 | 0.406 | 0.451 | 0.552 | 0.462 | 0.426 |  |  |  |  |  | 0.596 | 0.619 | 0.537 | 0.529 | 0.547 | 0.505 | 0.559 | 0.52 | 0.517 | 0.602
NCI-H1437 |  | 0.828 | 0.803 | 0.432 | 0.346 | 1.03 | 1.1 | 1.06 | 0.323 | 0.231 | 0.309 | 0.306 | 0.297 | 0.361 | 0.247 | 0.378 | 0.46 | 0.307 | 0.453 | 0.478
PC-14 | 0.681 | 0.769 | 1.16 | 0.197 | 0.102 | 0.297 | 0.371 | 0.35 | 0.218 | 0.114 | 0.746 | 0.784 | 0.516 | 0.409 | 0.669 | 0.273 | 0.266 | 0.248 | 0.0361 | 0.223
LCLC-103H | 0.409 | 0.474 | 0.549 | 0.463 | 0.553 | 0.642 | 0.774 | 0.792 | 0.775 | 0.695 | 0.367 | 0.312 | 0.275 | 0.33 | 0.314 | 0.371 | 0.388 | 0.393 | 0.535 | 0.309
COR-L23 | 0.699 | 0.781 | 0.799 | 0.275 | 0.163 |  |  |  |  |  | 0.439 | 0.39 | 0.411 | 0.433 | 0.517 | 0.442 | 0.42 | 0.388 | 0.455 | 0.417
H3255 | 0.542 | 0.55 | 0.598 | 0.659 | 0.585 | 0.798 | 0.916 | 0.928 | 0.79 | 0.571 | 0.359 | 0.329 | 0.351 | 0.352 | 0.336 | 0.442 | 0.342 | 0.386 | 0.391 | 0.312
SK-MES-1 | 0.72 | 0.611 | 0.615 | 0.572 | 0.554 |  |  |  |  |  | 0.704 | 0.675 | 0.663 | 0.686 | 0.674 | 0.33 | 0.306 | 0.208 | 0.199 | 0.187
NCI-H520 | 0.225 | 0.246 | 0.321 | 0.267 | 0.265 |  |  |  |  |  | 0.513 | 0.585 | 0.466 | 0.451 | 0.397 | 0.201 | 0.158 | 0.126 | 0.209 | 0.147
HCC-44 | 0.489 | 0.623 | 0.631 | 0.484 | 0.444 | 0.928 | 1.01 | 0.991 | 1.03 | 0.944 | 0.201 | 0.229 | 0.177 | 0.235 | 0.153 |  |  |  |  | 
SW 1573 | 0.602 | 0.465 | 0.718 | 0.646 | 0.61 |  |  |  |  |  | 0.383 | 0.37 | 0.336 | 0.36 | 0.336 | 0.508 | 0.475 | 0.503 | 0.324 | 0.376
NCI-H2023 | 0.248 | 0.38 | 0.464 | 0.295 | 0.166 |  |  |  |  |  | 0.407 | 0.391 | 0.363 | 0.361 | 0.351 | 0.625 | 0.549 | 0.438 | 0.487 | 0.375
SK-LU-1 | 0.312 | 0.319 | 0.398 | 0.352 | 0.34 |  |  |  |  |  | 0.601 | 0.57 | 0.433 | 0.55 | 0.468 | 0.165 | 0.163 | 0.153 | 0.153 | 0.186
NCI-H1703 |  |  |  |  |  | 0.127 | 0.133 | 0.127 | 0.12 | 0.146 |  |  |  |  |  |  |  |  |  | 
NCI-H1563 | 0.731 | 0.695 | 0.803 | 0.728 | 0.778 |  |  |  |  |  | 0.666 | 0.666 | 0.612 | 0.631 | 0.638 | 0.473 | 0.491 | 0.472 | 0.496 | 0.388
NCI-H2228 | 0.506 |  | 0.566 | 0.565 | 0.218 |  |  |  |  |  | 0.348 | 0.371 | 0.162 | 0.221 | 0.235 | 0.562 | 0.586 | 0.408 | 0.507 | 0.524
A549 |  |  |  |  |  |  |  |  |  |  | 0.36 | 0.182 |  | 0.154 | 0.178 |  |  |  |  | 
NCI-H1650 | 0.674 | 0.531 | 0.714 | 0.356 | 0.304 |  |  |  |  |  | 0.439 | 0.341 | 0.35 | 0.371 | 0.379 | 0.322 | 0.321 | 0.24 | 0.315 | 0.23
NCI-H1648 | 0.253 | 0.268 | 0.22 |  | 0.26 | 0.671 | 0.703 | 0.831 | 0.686 | 0.623 |  |  |  |  |  |  |  |  |  | 
NCI-H661 | 0.782 | 0.711 | 0.767 | 0.698 | 0.694 |  |  |  |  |  | 0.271 | 0.256 | 0.256 | 0.269 | 0.281 | 1.1 | 0.969 | 0.673 | 1.08 | 0.673
